Tests used:
[1] = test system: A549 non-small-cell-lung cancer cells; assay: MTT antiproliferative assay, A549; format: cell-based, human
Procedure: As part of the ongoing efforts aimed at identification of compounds active against cancer cells displaying resistance to proapoptotic agents, the selected 2-aryl-2-(3-indolyl)-acetohydroxamates were evaluated for in vitro growth inhibition against a panel of additional cancer cell lines including those resistant to various proapoptotic stimuli, such as human T98G and U87 glioblastoma and human A549 non-small-cell-lung cancer (NSCLC), as well as an apoptosis-sensitive tumor model, such as human Hs683 anaplastic oligodendroglioma, used as a reference. The data reveal that for the most part these compounds retain the single-digit antiproliferatve GI50 values in this challenging cancer cell panel.
(§1) Human cancer cell lines were obtained from the American Type Culture Collection (ATCC, Manassas, Va., USA), the European Collection of Cell Culture (ECACC, Salisbury, UK) and the Deutsche Sammlung von Mikroorganismen and Zellkulturen (DSMZ, Braunschweig, Germany). Human cervical adenocarcinoma HeLa cells were cultured in DMEM supplemented with 10% fetal bovine serum (FBS). Human mammary carcinoma MCF-7 cells were cultured in RPMI supplemented with 10% FBS. The U87 cells (ATCC HTB-14) were cultured in DMEM culture medium, while the A549 cells (DSMZ ACC107) were cultured in RPMI culture medium supplemented with 10% heat-inactivated FBS. The glioblastoma multiforme Hs683 (ATCC HTB-138) and the T98G (ATCC CRL-1690) cell lines were cultivated in DMEM supplemented with 10% FBS. The Human uterine sarcoma MES-SA and MES-SA/Dx5 cells were cultured in RPMI-1640 medium supplemented with 10% FBS with MES SA/Dx5 maintained in the presence of 500 nM Doxorubicin (Sigma). SKMEL-28 cells (ATCC HTB72) and U373 glioblastoma cells (ECACC 08061901) were cultured in RPMI culture medium supplemented with 10% heat-inactivated FBS. Cell culture media were supplemented with 4 mM glutamine (Lonza code BE17-605E), 100 μg/mL gentamicin (Lonza code 17-5182), and penicillin-streptomycin (200 units/ml and 200 μg/ml) (Lonza code 17-602E). Neurosphere culture GBM 031810 was established using known methods and maintained in Neurobasal medium (Invitrogen Carlsbad, Calif.) with B27 supplement (20 ul/ml; Invitrogen), Glutamax (10 ul/ml; Invitrogen), fibroblast growth factor-2 (20 ng/ml; Peprotech, Rocky Hill, N.J., USA), epidermal growth factor (20 ng/ml; Peprotech), heparin (32 IE/ml; Sigma Aldrich, St. Louis, Mo.), and penicillin-streptomycin (1×, Invitrogen). Growth factors and heparin were renewed twice weekly. All cell lines were cultured in T25 flasks, maintained and grown at 37° C., 95% humidity, 5% CO2.
(§2) Antiproliferative properties of the synthesized compounds were evaluated by the MTT assay. All compounds were dissolved in DMSO at a concentration of either 100 mM or 50 mM prior to cell treatment. The cells were trypsinized and seeded at 4×10^3 cells per well into 96-well plates. The cells were grown for 24 h, treated with compounds at concentrations ranging from 0.001 to 100 μM and incubated for 48 h in 200 μL media. 20 μL of MTT reagent in serum free medium (5 mg/mL) was added to each well and incubated further for 2 h. Media was removed and the resulting formazan crystals were re-solubilized in 200 μL of DMSO. A490 was measured using a Molecular Devices Thermomax plate reader. The experiments were performed in quadruplicate and repeated at least twice for each compound per cell line. Cells treated with 0.1% DMSO were used as a negative control; 1 μM phenyl arsine oxide (PAO) was used as a positive control.

[2] = test system: MES-SA/Dx5 MDR uterine sarcoma cells; assay: MTT antiproliferative assay, MDR MES-SA/Dx5; format: cell-based, human; conditions: Homo sapiens, MES-SA/Dx5; 48 h treatment, MTT, ± SD; MDR line; read-out: GI50 in vitro, MES-SA/Dx5
Procedure: Compared with the intrinsic drug resistance, as described above for such cancers as glioblastoma and melanoma, a large variety of tumors can also develop resistance to anticancer drugs resulting in MDR as explained previously. To assess whether the hydroxamates can overcome this resistance mechanism, selected hydroxamates were tested against MDR cells (Table 4). The MDR uterine sarcoma cell line MES-SA/Dx5 was utilized for this experiment. This cell line was established from the parent uterine sarcoma MES-SA, grown in the presence of increasing concentrations of doxorubicin and known to be resistant to a number of P-gp substrates.
as §1, §2
Selection of the MES-SA/Dx5 cell line was done according to W. G. Harker and B. I. Sikic, Cancer Res. 1985, p. 45, 4091. The cells were split and allowed to adhere overnight. […] The cells were maintained at this DOX concentration until their growth rate reached that of the untreated cells.

[3] = test system: MCF-7 breast adenocarcinoma cells; assay: MTT antiproliferative assay, MCF-7; format: cell-based; conditions: Homo sapiens, MCF7, Table 1, 48 h treatment, ± SD, read-out: cell viability GI50, MCF7
Source text: (§3) This finding led to an exploration of the SAR analyses by synthesizing the first generation compounds 3 containing diverse substituents at different positions in the 2-aryl-2-(3-indolyl)acetohydroxamate skeleton and testing this series for in vitro growth inhibition using the MTT colorimetric assay against two cell lines, human HeLa cervical and MCF-7 breast adenocarcinomas (Table 1). It emerged from these experiments that the substitution on the benzene ring of the indole moiety (R^2≠H) was not tolerated (e.g., 3abfa and 3acfa), whereas the nitrogen could be derivatized (R^1≠H) with only a small activity drop (e.g., 3bafa vs 3aafa).
as §1, §2

SKMEL-28 melanoma cells = assay: Quantitative videomicroscopy, SKMEL-28; format: cell-based, human; conditions: 25 μM
Procedure: To obtain insight into the effectiveness of 2-aryl-2-(3-indolyl)acetohydroxamates against apoptosis-resistant cancers, computer-assisted phase-contrast microscopy (quantitative videomicroscopy) was employed to observe the phenotypic morphological changes in cancer cells as they are treated with these compounds. […] Based on the phase contrast pictures obtained by means of quantitative videomicroscopy, a global growth ratio (GGR) was calculated, which corresponds to the ratio of the mean number of cells present in a given image captured in the experiment (in this case after 24, 48 and 72 h) to the number of cells present in the first image (at 0 h). The ratio obtained in the 3aafa-treated experiment was then divided by the ratio obtained in the control. […] Thus, the GGR calculations are consistent with the MTT colorimetric data and indicate that it is the cytostatic properties associated with the hydroxamates that are responsible for their antiproliferative effects against apoptosis-resistant cancer cells, at least at relevant concentrations (slightly above the GI50 values).
Human cancer cell lines were obtained from the American Type Culture Collection (ATCC, Manassas, Va., USA), the European Collection of Cell Culture (ECACC, Salisbury, UK) and the Deutsche Sammlung von Mikroorganismen and Zellkulturen (DSMZ, Braunschweig, Germany). […]

[4] = test system: HeLa cervical adenocarcinoma cells; assay: MTT antiproliferative assay, HeLa; format: cell-based; conditions: Homo sapiens, Table 1, 48 h treatment, ± SD, read-out: cell viability GI50, HeLa
Source text: as §3, §1, §2

- GI50 ([1]; Homo sapiens, A549, 48 h treatment, MTT, ± SD, read-out: GI50 in vitro, A549): 2.8 ± 0.4 µM
- GI50 [2]: 4 ± 1.1 µM
- GI50 [3]: 3.4 ± 0.3 µM
- GI50 [4]: 3.6 ± 0.5 µM
Compound: O=C(NO)C(c1ccccc1)c1c(-c2ccc3ccccc3c2)[nH]c2ccccc12 (stereo not shown) [Compound 3aafa]
- activity against cell populations resistant to proapoptotic agents, A549 ([1]; FIG. 3, increasing concentration): potent growth inhibitory properties against most of the cells
- phenotypic effect, SKMEL-28 (SKMEL-28 melanoma cells; slightly exceeding GI50, FIG. 4): inhibits cancer cell proliferation without inducing cell death
- global growth ratio (GGR), SKMEL-28 (SKMEL-28 melanoma cells; 72 h observation, treated/control): ca. 0.3
